# Experimental data: BindingDB's records for doi:10.1016/S0960-894X(01)80741-1 (1993)
# Experiment: Compound was tested for inhibitory activity against carboxypeptidase A
smiles,measurement,value
O=C(O)[C@@H](CS)Cc1ccccc1 [(S)-2-Mercaptomethyl-3-phenyl-propionic acid],Ki,7.8 nM
